# “And” between values parts separate entries of the source, which are not always exact repeats. Identical values can stand only once.
# Target: T1, Peroxisome proliferator-activated receptor gamma (Homo sapiens) (UniProt P37231)
# T1 sequence (whole entry): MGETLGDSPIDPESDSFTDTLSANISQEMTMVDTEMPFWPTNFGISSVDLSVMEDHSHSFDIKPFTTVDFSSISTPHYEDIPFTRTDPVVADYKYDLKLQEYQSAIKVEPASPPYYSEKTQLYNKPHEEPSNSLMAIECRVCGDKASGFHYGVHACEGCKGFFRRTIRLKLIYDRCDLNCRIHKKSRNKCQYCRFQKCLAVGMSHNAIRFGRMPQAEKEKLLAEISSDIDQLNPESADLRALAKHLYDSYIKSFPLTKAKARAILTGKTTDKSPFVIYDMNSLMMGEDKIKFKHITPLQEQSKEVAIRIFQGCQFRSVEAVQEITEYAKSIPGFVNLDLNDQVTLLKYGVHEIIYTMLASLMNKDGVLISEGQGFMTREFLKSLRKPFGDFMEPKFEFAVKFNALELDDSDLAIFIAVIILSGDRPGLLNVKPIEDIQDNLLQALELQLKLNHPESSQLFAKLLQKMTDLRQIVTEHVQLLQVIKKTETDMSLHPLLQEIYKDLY
# Test: Agonist activity at PPARgamma in human HepG2 cells assessed as activation of PPRE at 10 ug/ml incubated for 24 hrs by dual luciferase reporter gene assay relative to pioglitazone
# Format: cell-based
row,Structure (SMILES),Activity
1,CCCCOC(=O)[C@@H](NC(=O)OCc1ccccc1)c1cccc(NC(=O)CCl)c1,-5.58%
2,CCOC(=O)[C@@H](NC(=O)OCc1ccccc1)c1cccc(NC(=O)CCl)c1,-23.9%
3,CCCOC(=O)[C@@H](NC(=O)OCc1ccccc1)c1cccc(NC(=O)CCl)c1,-17.1%
4,COC(=O)[C@@H](NC(=O)OCc1ccccc1)c1cccc(NC(=O)Cn2nnnc2C)c1,15.4%
5,O=C(CCl)Nc1cccc([C@H](NC(=O)OCc2ccccc2)C(=O)NO)c1,-4.96%
6,COC(=O)[C@@H](NC(=O)OCc1ccccc1)c1cccc(NC(=O)CCCCl)c1,11.8%
7,COC(=O)[C@@H](NC(=O)OCc1ccccc1)c1cccc(NC(=O)CN2CCN(C(=O)OC(C)(C)C)CC2)c1,-10.9%
8,CCNC(=O)[C@@H](NC(=O)OCc1ccccc1)c1cccc(NC(=O)CCl)c1,-19.3%
9,COC(=O)[C@@H](NC(=O)OCc1ccccc1)c1cccc(NC(=O)Cn2nc(C)cc2C)c1,1.49%
10,COC(=O)[C@@H](NC(=O)OCc1ccccc1)c1cccc(NC(=O)CNc2ccc(S(=O)(=O)Nc3cc(C)on3)cc2)c1,27.9%
11,Cc1cc(NS(=O)(=O)c2ccc(NCC(=O)Nc3cccc([C@H](NC(=O)OCc4ccccc4)C(=O)O)c3)cc2)no1,58.8%
12,O=C(CCl)Nc1cccc([C@H](NC(=O)OCc2ccccc2)C(=O)O)c1,52.8% and 49.1%
13,COC(=O)[C@@H](NC(=O)OCc1ccccc1)c1cccc(NC(=O)Cn2nnnc2SC)c1,22.4%
14,CN(CCO)C(=O)[C@@H](NC(=O)OCc1ccccc1)c1cccc(NC(=O)CCl)c1,124%
15,CC(C)(C)OC(=O)N1CCN(CC(=O)Nc2cccc([C@H](NC(=O)OCc3ccccc3)C(=O)O)c2)CC1,27.5%
16,O=C(CN1C(=O)c2ccccc2C1=O)Nc1cccc([C@H](NC(=O)OCc2ccccc2)C(=O)O)c1,47.4%
17,CNC(=O)[C@@H](NC(=O)OCc1ccccc1)c1cccc(NC(=O)CCl)c1,-17.4%

# Second part, the molecule after the results:
row,Activity,Structure (SMILES)
1,14.9%,COC(=O)[C@@H](NC(=O)OCc1ccccc1)c1cccc(NC(=O)Cn2cnnn2)c1
2,4.3%,O=C(Cn1cnc2ccccc21)Nc1cccc([C@H](NC(=O)OCc2ccccc2)C(=O)O)c1
3,16.5%,CCC(=O)Nc1cccc([C@H](NC(=O)OCc2ccccc2)C(=O)OC)c1
4,14.6%,COC(=O)[C@@H](NC(=O)OCc1ccccc1)c1cccc(NC(=O)CN2C(=O)c3ccccc3C2=O)c1
5,-3.5%,COC(=O)[C@@H](NC(=O)OCc1ccccc1)c1cccc(NC(=O)CCCl)c1
6,39.4%,O=C(CSc1nc2ccccc2[nH]1)Nc1cccc([C@H](NC(=O)OCc2ccccc2)C(=O)O)c1
7,-16.1%,COCC(=O)Nc1cccc([C@H](NC(=O)OCc2ccccc2)C(=O)OC)c1
8,100%,COC(=O)[C@@H](NC(=O)OCc1ccccc1)c1cccc(NC(=O)CCl)c1
9,21.6%,COC(=O)[C@@H](NC(=O)OCc1ccccc1)c1cccc(NC(C)=O)c1
10,4.52%,COC(=O)[C@@H](NC(=O)OCc1ccccc1)c1cccc(NC(=O)Cn2cnc3ccccc32)c1
11,11.2%,CCCC(=O)Nc1cccc([C@H](NC(=O)OCc2ccccc2)C(=O)OC)c1
12,-9.41%,COC(=O)[C@@H](NC(=O)OCc1ccccc1)c1cccc(NC(=O)CSc2nc3ccccc3[nH]2)c1

# Target: Dipeptidyl peptidase 4 (Homo sapiens) (UniProt P27487)
# Sequence (P27487 whole entry, looked up, the tested form may be a part): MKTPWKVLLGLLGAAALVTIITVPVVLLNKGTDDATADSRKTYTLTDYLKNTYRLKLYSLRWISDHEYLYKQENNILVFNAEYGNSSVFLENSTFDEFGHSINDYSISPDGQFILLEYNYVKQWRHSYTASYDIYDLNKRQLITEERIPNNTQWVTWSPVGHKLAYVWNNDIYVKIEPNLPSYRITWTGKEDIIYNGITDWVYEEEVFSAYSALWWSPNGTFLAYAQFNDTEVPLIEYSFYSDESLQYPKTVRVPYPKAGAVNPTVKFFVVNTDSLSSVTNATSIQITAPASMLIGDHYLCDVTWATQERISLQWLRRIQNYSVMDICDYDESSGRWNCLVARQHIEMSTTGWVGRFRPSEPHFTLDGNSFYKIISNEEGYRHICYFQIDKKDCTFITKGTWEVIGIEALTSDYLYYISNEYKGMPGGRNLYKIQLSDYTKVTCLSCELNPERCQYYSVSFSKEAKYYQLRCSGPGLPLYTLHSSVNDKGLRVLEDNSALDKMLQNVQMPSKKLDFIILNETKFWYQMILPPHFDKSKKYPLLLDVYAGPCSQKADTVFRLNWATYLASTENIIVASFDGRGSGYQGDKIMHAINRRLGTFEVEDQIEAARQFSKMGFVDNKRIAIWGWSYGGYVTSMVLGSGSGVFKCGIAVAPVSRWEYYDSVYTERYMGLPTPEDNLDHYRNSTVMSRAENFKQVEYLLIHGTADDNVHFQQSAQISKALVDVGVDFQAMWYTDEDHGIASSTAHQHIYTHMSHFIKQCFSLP
# Test: Inhibition of recombinant human C-terminal His-tagged DPP-4 (29 to 766 residues) expressed in Sf9 insect cells at 10 ug/ml using dipeptidyl peptidase […] as substrate incubated for 10 mins followed by substrate addition measured after 40 mins by fluorescence assay relative to control
row,Structure (SMILES),inhibition
1,COC(=O)[C@@H](NC(=O)OCc1ccccc1)c1cccc(NC(=O)CN2CCN(C(=O)OC(C)(C)C)CC2)c1,-6.12%
2,COC(=O)[C@@H](NC(=O)OCc1ccccc1)c1cccc(NC(=O)CNc2ccc(S(=O)(=O)Nc3cc(C)on3)cc2)c1,5.87%
3,Cc1cc(NS(=O)(=O)c2ccc(NCC(=O)Nc3cccc([C@H](NC(=O)OCc4ccccc4)C(=O)O)c3)cc2)no1,11.1%
4,CC(C)(C)OC(=O)N1CCN(CC(=O)Nc2cccc([C@H](NC(=O)OCc3ccccc3)C(=O)O)c2)CC1,5.26%

# Results, then the molecule that gave them:
row,inhibition,Structure (SMILES)
1,-0.74%,O=C(Cn1cnc2ccccc21)Nc1cccc([C@H](NC(=O)OCc2ccccc2)C(=O)O)c1
2,2.17%,COC(=O)[C@@H](NC(=O)OCc1ccccc1)c1cccc(NC(=O)CN2C(=O)c3ccccc3C2=O)c1
3,-7.54%,O=C(CSc1nc2ccccc2[nH]1)Nc1cccc([C@H](NC(=O)OCc2ccccc2)C(=O)O)c1
4,16.1%,COC(=O)[C@@H](NC(=O)OCc1ccccc1)c1cccc(NC(=O)CCl)c1
5,-0.31%,COC(=O)[C@@H](NC(=O)OCc1ccccc1)c1cccc(NC(=O)Cn2cnc3ccccc32)c1
6,8.99%,COC(=O)[C@@H](NC(=O)OCc1ccccc1)c1cccc(NC(=O)CSc2nc3ccccc3[nH]2)c1

# Target: T1, Peroxisome proliferator-activated receptor gamma (Homo sapiens)
# Test: Agonist activity at PPARgamma in human HepG2 cells assessed as activation of PPRE at 10 ug/ml incubated for 24 hrs by dual luciferase reporter gene assay relative to control
# Format: cell-based
row,Structure (SMILES),Activity
1,CCCCOC(=O)[C@@H](NC(=O)OCc1ccccc1)c1cccc(NC(=O)CCl)c1,-5.01%
2,CCOC(=O)[C@@H](NC(=O)OCc1ccccc1)c1cccc(NC(=O)CCl)c1,-24.8%
3,CCCOC(=O)[C@@H](NC(=O)OCc1ccccc1)c1cccc(NC(=O)CCl)c1,-17.1%
4,COC(=O)[C@@H](NC(=O)OCc1ccccc1)c1cccc(NC(=O)Cn2nnnc2C)c1,14.4%
5,O=C(CCl)Nc1cccc([C@H](NC(=O)OCc2ccccc2)C(=O)NO)c1,-5.33%
6,COC(=O)[C@@H](NC(=O)OCc1ccccc1)c1cccc(NC(=O)CCCCl)c1,11.6%
7,COC(=O)[C@@H](NC(=O)OCc1ccccc1)c1cccc(NC(=O)CN2CCN(C(=O)OC(C)(C)C)CC2)c1,-8.27%
8,CCNC(=O)[C@@H](NC(=O)OCc1ccccc1)c1cccc(NC(=O)CCl)c1,-20.1%
9,COC(=O)[C@@H](NC(=O)OCc1ccccc1)c1cccc(NC(=O)Cn2nc(C)cc2C)c1,1.36%
10,COC(=O)[C@@H](NC(=O)OCc1ccccc1)c1cccc(NC(=O)CNc2ccc(S(=O)(=O)Nc3cc(C)on3)cc2)c1,18.9%
11,Cc1cc(NS(=O)(=O)c2ccc(NCC(=O)Nc3cccc([C@H](NC(=O)OCc4ccccc4)C(=O)O)c3)cc2)no1,40.6%
12,O=C(CCl)Nc1cccc([C@H](NC(=O)OCc2ccccc2)C(=O)O)c1,53.5%
13,COC(=O)[C@@H](NC(=O)OCc1ccccc1)c1cccc(NC(=O)Cn2nnnc2SC)c1,19.5%
14,CN(CCO)C(=O)[C@@H](NC(=O)OCc1ccccc1)c1cccc(NC(=O)CCl)c1,120%
15,CC(C)(C)OC(=O)N1CCN(CC(=O)Nc2cccc([C@H](NC(=O)OCc3ccccc3)C(=O)O)c2)CC1,21.4%
16,O=C(CN1C(=O)c2ccccc2C1=O)Nc1cccc([C@H](NC(=O)OCc2ccccc2)C(=O)O)c1,39.9%
17,CNC(=O)[C@@H](NC(=O)OCc1ccccc1)c1cccc(NC(=O)CCl)c1,-18.8%

# Now from value to molecule:
row,Activity,Structure (SMILES)
1,14.4%,COC(=O)[C@@H](NC(=O)OCc1ccccc1)c1cccc(NC(=O)Cn2cnnn2)c1
2,3.85%,O=C(Cn1cnc2ccccc21)Nc1cccc([C@H](NC(=O)OCc2ccccc2)C(=O)O)c1
3,18.3%,CCC(=O)Nc1cccc([C@H](NC(=O)OCc2ccccc2)C(=O)OC)c1
4,11.9%,COC(=O)[C@@H](NC(=O)OCc1ccccc1)c1cccc(NC(=O)CN2C(=O)c3ccccc3C2=O)c1
5,-3.55%,COC(=O)[C@@H](NC(=O)OCc1ccccc1)c1cccc(NC(=O)CCCl)c1
6,32.9%,O=C(CSc1nc2ccccc2[nH]1)Nc1cccc([C@H](NC(=O)OCc2ccccc2)C(=O)O)c1
7,-17.1%,COCC(=O)Nc1cccc([C@H](NC(=O)OCc2ccccc2)C(=O)OC)c1
8,105 to 179%,COC(=O)[C@@H](NC(=O)OCc1ccccc1)c1cccc(NC(=O)CCl)c1
9,24.9%,COC(=O)[C@@H](NC(=O)OCc1ccccc1)c1cccc(NC(C)=O)c1
10,3.93%,COC(=O)[C@@H](NC(=O)OCc1ccccc1)c1cccc(NC(=O)Cn2cnc3ccccc32)c1
11,12%,CCCC(=O)Nc1cccc([C@H](NC(=O)OCc2ccccc2)C(=O)OC)c1
12,7.66%,COC(=O)[C@@H](NC(=O)OCc1ccccc1)c1cccc(NC(=O)CSc2nc3ccccc3[nH]2)c1

# Species: Rattus norvegicus
# Test: Inhibition of rat small intestine alpha-glucosidase at 10 ug/ml using maltose/glucose as substrate incubated for 10 mins followed by substrate addition measured after 10 mins relative to control
row,Structure (SMILES),inhibition
1,COC(=O)[C@@H](NC(=O)OCc1ccccc1)c1cccc(NC(=O)CN2CCN(C(=O)OC(C)(C)C)CC2)c1,15.5%
2,COC(=O)[C@@H](NC(=O)OCc1ccccc1)c1cccc(NC(=O)CNc2ccc(S(=O)(=O)Nc3cc(C)on3)cc2)c1,11.8%
3,Cc1cc(NS(=O)(=O)c2ccc(NCC(=O)Nc3cccc([C@H](NC(=O)OCc4ccccc4)C(=O)O)c3)cc2)no1,8.89%
4,O=C(CCl)Nc1cccc([C@H](NC(=O)OCc2ccccc2)C(=O)O)c1,17.7%
5,CC(C)(C)OC(=O)N1CCN(CC(=O)Nc2cccc([C@H](NC(=O)OCc3ccccc3)C(=O)O)c2)CC1,13.7%
6,O=C(CN1C(=O)c2ccccc2C1=O)Nc1cccc([C@H](NC(=O)OCc2ccccc2)C(=O)O)c1,17.8%

# More lines, now with the values ahead:
row,inhibition,Structure (SMILES)
1,0.99%,O=C(Cn1cnc2ccccc21)Nc1cccc([C@H](NC(=O)OCc2ccccc2)C(=O)O)c1
2,17.5%,COC(=O)[C@@H](NC(=O)OCc1ccccc1)c1cccc(NC(=O)CN2C(=O)c3ccccc3C2=O)c1
3,12.6%,O=C(CSc1nc2ccccc2[nH]1)Nc1cccc([C@H](NC(=O)OCc2ccccc2)C(=O)O)c1
4,14.6%,COC(=O)[C@@H](NC(=O)OCc1ccccc1)c1cccc(NC(=O)CCl)c1
5,2.91%,COC(=O)[C@@H](NC(=O)OCc1ccccc1)c1cccc(NC(=O)Cn2cnc3ccccc32)c1
6,9.26%,COC(=O)[C@@H](NC(=O)OCc1ccccc1)c1cccc(NC(=O)CSc2nc3ccccc3[nH]2)c1

# Species: Rattus norvegicus
# Test: Inhibition of rat small intestine alpha-glucosidase at 3.74 umol/L using maltose/glucose as substrate incubated for 10 mins followed by substrate addition measured after 10 mins relative to control
row,Structure (SMILES),inhibition
1,OCC(CO)N[C@H]1C[C@](O)(CO)[C@@H](O)[C@H](O)[C@H]1O,104%

# Target: T1, Peroxisome proliferator-activated receptor gamma (Homo sapiens)
# Test: Agonist activity at PPARgamma in human HepG2 cells assessed as activation of PPRE at 23.05 umol/L incubated for 24 hrs by dual luciferase reporter gene assay relative to control
# Format: cell-based
row,Structure (SMILES),Activity
1,CN(CCO)C(=O)[C@@H](NC(=O)OCc1ccccc1)c1cccc(NC(=O)CCl)c1,208%

# Target: T2, Peroxisome proliferator-activated receptor gamma (Homo sapiens, UniProt P37231)
# T2 sequence (P37231 whole entry): T1 sequence (whole entry)
# Test: Agonist activity at PPARgamma in human HepG2 cells assessed as activation of PPRE incubated for 24 hrs by dual luciferase reporter gene assay
# Format: cell-based
row,Structure (SMILES),EC50
1,CN(CCO)C(=O)[C@@H](NC(=O)OCc1ccccc1)c1cccc(NC(=O)CCl)c1,8.97 µM
2,COC(=O)[C@@H](NC(=O)OCc1ccccc1)c1cccc(NC(=O)CCl)c1,22.4 µM

# — ChEMBL document CHEMBL4229434, “Design, synthesis, and evaluation of novel l-phenylglycine derivatives as potential PPARγ lead compounds” (Bioorg Med Chem, 2018)
